Where two headings read alike, the source gives them in different places.
Assays:
Micrococcus luteus B-109 = test: Agar-well diffusion, bactericidal activity; assay type: cell-based; conditions: Micrococcus luteus
How it was run: (§1)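 Bacteria spread on agar (BP medium; GYCa for X. campestris; pH 7.2–7.4) with 6-mm wells, each receiving 150 μL compound solution. Cultures grown at 28 °C; growth-inhibition zone width measured after 36–40 h.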

[1] = test system: Pectobacterium atrosepticum 1043; test: Agar-well diffusion, bactericidal activity; assay type: cell-based; conditions: Pectobacterium atrosepticum, 1043, 2 mM/L
How it was run: as §1

[2] = test system: Pseudomonas fluorescens EL-2.1; test: Agar-well diffusion, bactericidal activity; assay type: cell-based; conditions: Pseudomonas fluorescens, EL2.1, 2 mM/L
How it was run: as §1

[3] = test system: Pectobacterium carotovorum subsp. carotovorum MI; test: Agar-well diffusion, bactericidal activity; assay type: cell-based; conditions: Pectobacterium carotovorum, 2 mM/L
How it was run: as §1

[4] = test system: Fusarium oxysporum IBPPM 543; test: Mycelial radial growth inhibition; assay type: cell-based; conditions: Fusarium oxysporum; for inhibition of growth at 1 µM: 1 nmol/mL; for inhibition of growth at 1 µM / inhibition of growth at 5 µM / inhibition of growth at 20 µM / inhibition of growth at 40 µM: read-out: Inhibition value, I (%); for inhibition of growth at 5 µM: 5 nmol/mL; for inhibition of growth at 20 µM: 20 nmol/mL; for inhibition of growth at 40 µM: 40 nmol/mL; for EC50: day 5, read-out: EC50, µg/mL at Day 5, F. oxysporum
How it was run: (§2)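 Compounds mixed into molten GPY agar at various concentrations; centre inoculated with a 5-mm mycelial plug from 10-day cultures and incubated at 27 °C. Colony diameter compared with untreated control until control plate was covered (usually 12 days); ≥4 replicates in two experiments.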

[5] = test system: Phytophthora cactorum VKM F-985; test: Mycelial radial growth inhibition; assay type: cell-based; conditions: for inhibition of growth at 1 µM / inhibition of growth at 5 µM / inhibition of growth at 15 µM / inhibition of growth / inhibition of growth at 40 µM / EC50 / inhibition of growth at 3 µM / inhibition of growth at 7 µM: Phytophthora cactorum; for inhibition of growth at 1 µM: 1 nmol/mL; for inhibition of growth at 1 µM / inhibition of growth at 5 µM / inhibition of growth at 15 µM / inhibition of growth / inhibition of growth at 40 µM / inhibition of growth at 3 µM / inhibition of growth at 7 µM: read-out: Inhibition value, I (%); for inhibition of growth at 5 µM: 5 nmol/mL; for inhibition of growth at 15 µM: 15 nmol/mL; for inhibition of growth: 27 nmol/mL; for inhibition of growth at 40 µM: 40 nmol/mL; for EC50: read-out: EC50, µg/mL at Day 5, P. cactorum; for inhibition of growth at 3 µM: 3 nmol/mL; for inhibition of growth at 7 µM: 7 nmol/mL
How it was run: as §2

[6] = test system: Xanthomonas campestris B-610; test: Agar-well diffusion, bactericidal activity; assay type: cell-based; conditions: Xanthomonas campestris
How it was run: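 Agar-well diffusion on GYCa agar (pH 7.2–7.4) seeded with bacterial suspension; 150 μL compound solution placed in 6-mm wells. Inhibition zone width measured after 36–40 h incubation.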

[7] = test system: five representative phytopathogens; test: Agar-well diffusion, bactericidal activity over the panel of phytopathogens; assay type: cell-based; conditions: for zone of inhibition at 2000 µM: 36 h, 2 mM solutions, dependent on the test system used, read-out: inhibition zone width (mm), range over the test systems
How it was run: as §1

[8] = B109, 2 mM/L, average of 3 experiments, read-out: width of the inhibition zone (mm), M. luteus
[9] = average of 3 experiments, read-out: width of the inhibition zone (mm), P. atrosepticum
[10] = Table S3, read-out: Inhibition zone width (mm), not less
[11] = average of 3 experiments, read-out: width of the inhibition zone (mm), Ps. fluorescens
[12] = average of 3 experiments, read-out: width of the inhibition zone (mm), P. carotovorum subsp. carotovorum
[13] = IBPPM543, 72 h, age of the fungus 3 days
[14] = IBPPM543, 120 h, age of the fungus 5 days
[15] = IBPPM543, 168 h, age of the fungus 7 days
[16] = IBPPM543, 216 h, age of the fungus 9 days
[17] = 120 h, age of the fungus 5 days
[18] = 168 h, age of the fungus 7 days
[19] = 216 h, age of the fungus 9 days
[20] = B610, 2 mM/L, average of 3 experiments, read-out: width of the inhibition zone (mm), X. campestris
[21] = B610, Table S3, 2 mM/L, read-out: Inhibition zone width (mm), not less

With O=C(C[n+]1ccccc1)NN=C1C(=O)N(Cc2c(F)c(F)c(F)c(F)c2F)c2ccc(F)cc21.[Cl-] [Compound 5d, 1-(2-(2-(5-Fluoro-2-oxo-1-((perfluorophenyl)methyl)indolin-3-ylidene)hydrazinyl)-2-oxoethyl)pyridin-1-ium chloride] the melting point was 165 to 166 °C, the zone of inhibition at 2000 µM (Micrococcus luteus B-109; [8]) was 3 mm and the zone of inhibition at 2000 µM (Micrococcus luteus B-109; B109, Table S3, 2 mM/L, read-out: Inhibition zone width (mm), not less) was ≥ 3 mm. The zone of inhibition at 2000 µM [1, 9] was 4 mm, the zone of inhibition at 2000 µM [1, 10] was ≥ 4 mm and the zone of inhibition at 2000 µM [2, 11] was 2 mm. For the same compound, the zone of inhibition at 2000 µM [2, 10] was ≥ 2 mm, the zone of inhibition at 2000 µM [3, 12] was 4 mm and the zone of inhibition at 2000 µM [3, 10] was ≥ 4 mm. For the same compound, the inhibition of growth at 1 µM [4, 13] was 9%, the inhibition of growth at 5 µM [4, 13] was 33% and the inhibition of growth at 20 µM [4, 13] was 35%. It also gave an inhibition of growth at 40 µM [4, 13] of 49%, an EC50 ([4]; IBPPM543, 120 h) of 17.4 µg/mL and an inhibition of growth at 1 µM [4, 14] of 10%. The inhibition of growth at 5 µM [4, 14] was 24%, the inhibition of growth at 20 µM [4, 14] was 37% and the inhibition of growth at 40 µM [4, 14] was 54%. It also gave an inhibition of growth at 1 µM [4, 15] of 10%, an inhibition of growth at 5 µM [4, 15] of 23% and an inhibition of growth at 20 µM [4, 15] of 32%. The inhibition of growth at 40 µM [4, 15] was 41%, the inhibition of growth at 1 µM [4, 16] was 0% and the inhibition of growth at 5 µM [4, 16] was 16%. It also gave an inhibition of growth at 20 µM [4, 16] of 18%, an inhibition of growth at 40 µM [4, 16] of 36% and an inhibition of growth at 1 µM ([5]; 72 h, age of the fungus 3 days) of 15%. For the same compound, the inhibition of growth at 5 µM ([5]; 72 h, age of the fungus 3 days) was 20%, the inhibition of growth at 15 µM ([5]; 72 h, age of the fungus 3 days) was 26% and the inhibition of growth ([5]; 72 h, age of the fungus 3 days) was 28%. For the same compound, the inhibition of growth at 40 µM ([5]; 72 h, age of the fungus 3 days) was 35%, the EC50 ([5]; 120 h, day 5) was 24.7 µg/mL and the inhibition of growth at 1 µM [5, 17] was 12%. The inhibition of growth at 5 µM [5, 17] was 19%, the inhibition of growth at 15 µM [5, 17] was 28% and the inhibition of growth [5, 17] was 32%. For the same compound, the inhibition of growth at 40 µM [5, 17] was 43%, the inhibition of growth at 1 µM [5, 18] was 10% and the inhibition of growth at 5 µM [5, 18] was 16%. It also gave an inhibition of growth at 15 µM [5, 18] of 23%, an inhibition of growth [5, 18] of 25% and an inhibition of growth at 40 µM [5, 18] of 33%. It also gave an inhibition of growth at 1 µM [5, 19] of 8%, an inhibition of growth at 5 µM [5, 19] of 11% and an inhibition of growth at 15 µM [5, 19] of 13%. It also gave an inhibition of growth [5, 19] of 22%, an inhibition of growth at 40 µM [5, 19] of 29% and a zone of inhibition at 2000 µM [6, 20] of 4 mm. For the same compound, the zone of inhibition at 2000 µM [6, 21] was ≥ 4 mm, the zone of inhibition at 2000 µM [7] was 2 to 4 mm and the “bactericidal activity” value ([7]; Table S2) was “moderate bactericidal activity”.
Compound O=C(C[n+]1ccccc1)NN=C1C(=O)N(Cc2cccc(C(F)(F)F)c2)c2ccc(F)cc21.[Cl-] [Compound 5c, 1-(2-(2-(5-Fluoro-2-oxo-1-(3-(trifluoromethyl)benzyl)indolin-3-ylidene)hydrazinyl)-2-oxoethyl)pyridin-1-ium chloride] has a melting point of 172 to 173 °C, a zone of inhibition at 2000 µM (Micrococcus luteus B-109; [8]) of 4 mm and a zone of inhibition at 2000 µM [1, 9] of 5 mm. For the same compound, the zone of inhibition at 2000 µM [1, 10] was ≥ 5 mm, the zone of inhibition at 2000 µM [2, 11] was 5 mm and the zone of inhibition at 2000 µM [2, 10] was ≥ 5 mm. The zone of inhibition at 2000 µM [3, 12] was 5 mm, the zone of inhibition at 2000 µM [3, 10] was ≥ 5 mm and the inhibition of growth at 1 µM [4, 13] was 22%. For the same compound, the inhibition of growth at 5 µM [4, 13] was 40%, the inhibition of growth at 20 µM [4, 13] was 49% and the inhibition of growth at 40 µM [4, 13] was 57%. The EC50 ([4]; IBPPM543, 120 h) was 14.9 µg/mL, the inhibition of growth at 1 µM [4, 14] was 19% and the inhibition of growth at 5 µM [4, 14] was 36%. It also gave an inhibition of growth at 20 µM [4, 14] of 45%, an inhibition of growth at 40 µM [4, 14] of 55% and an inhibition of growth at 1 µM [4, 15] of 13%. The inhibition of growth at 5 µM [4, 15] was 28%, the inhibition of growth at 20 µM [4, 15] was 35% and the inhibition of growth at 40 µM [4, 15] was 52%. The inhibition of growth at 1 µM [4, 16] was 3%, the inhibition of growth at 20 µM [4, 16] was 21% and the inhibition of growth at 40 µM [4, 16] was 51%. For the same compound, the “antagonistic effect superior to that of N-cetylpyridinium chloride” value ([5]; 5 days of growth) was 2.3 times, the inhibition of growth at 3 µM ([5]; 72 h, age of the fungus 3 days) was 7% and the inhibition of growth at 7 µM ([5]; 72 h, age of the fungus 3 days) was 13%. For the same compound, the inhibition of growth ([5]; 72 h, age of the fungus 3 days) was 36%, the inhibition of growth at 40 µM ([5]; 72 h, age of the fungus 3 days) was 55% and the EC50 ([5]; 120 h, day 5) was 15 µg/mL. The inhibition of growth at 3 µM [5, 17] was 8%, the inhibition of growth at 7 µM [5, 17] was 21% and the inhibition of growth [5, 17] was 38%. It also gave an inhibition of growth at 40 µM [5, 17] of 64%, an inhibition of growth at 3 µM [5, 18] of 4% and an inhibition of growth at 7 µM [5, 18] of 14%. For the same compound, the inhibition of growth [5, 18] was 29%, the inhibition of growth at 40 µM [5, 18] was 42% and the inhibition of growth at 3 µM [5, 19] was 3%. The inhibition of growth at 7 µM [5, 19] was 12%, the inhibition of growth [5, 19] was 18% and the inhibition of growth at 40 µM [5, 19] was 36%. The “EC50, µg/mL at Day 5, P. cactorum” value ([5]; day 5) was 15.40 µg/mL, the zone of inhibition at 2000 µM [6, 20] was 7 mm and the zone of inhibition at 2000 µM [6, 21] was ≥ 7 mm. It also gave a zone of inhibition at 2000 µM [7] of 4 to 7 mm.

— PMC10607100, “Anticancer and Antiphytopathogenic Activity of Fluorinated Isatins and Their Water-Soluble Hydrazone Derivatives” (International Journal of Molecular Sciences, 2023)
